Data reported in US20180140609A1, “USE OF (4-HYDROXY-2-METHYL-1,1-DIOXIDO-2H-BENZO[E][1,2]THIAZINE-3-YL)(NAPHTHALENE-2-YL) METHANONE IN THE PREVENTION AND/OR TREATMENT OF NON-ALCOHOLIC STEATOHEPATITIS” (PIERRE FABRE MEDICAMENT, priority 2015, published 2018).
Where two headings read alike, the source gives them in different places.

Legend:
Format in all cases: in vivo
human 11β-HSD type 1 [1] = molecular target: T1, human 11β-HSD type 1 (Homo sapiens, UniProt P28845); test: Plasma bioactivity after single oral administration in C57BL/6N mice, read as inhibition of human 11β-HSD type 1 (SPA); settings: for inhibition at 2.5 mg/kg: 2.5 mg/kg oral; for inhibition at 2.5 mg/kg / inhibition at 10 mg/kg: table with plasma levels; for inhibition at 10 mg/kg: 10 mg/kg oral
Experimental: (§1) The evaluation is made in on 4- to 6-week-old non-fasted male C57BL/6N strain mice. The compounds to be tested or the vehicle (0.5% methylcellulose in water, at 10 ml/kg) are administered orally; n=3 mice per treatment.
(§2) Blood samples are collected 1 h and 4 h after administration; the tubes are centrifuged to obtain plasma and frozen at −70° C. until bioanalysis. Plasma bioactivity (2% final volume) is analyzed by using the inhibition of human 11β-HSD type 1 as a detection system (SPA technology) for each compound at each dose tested. Percent inhibition (versus mice treated with carrier) is calculated for each dose.

[2] = Plasma level by LC/MS after single oral administration in C57BL/6N mice; settings: parent molecule by LC/MS
Experimental: as §1, §2
Compound 1 is detected in the plasma of the treated mice and inhibits 11β-HSD type 1 as of 0.63 mg/kg. LC/MS analyses of plasma samples from the animals treated with Compound 1K show a much higher plasma level of the parent molecule than that found for Compound 1.

human 11β-HSD type 1 [3] = molecular target: T1, human 11β-HSD type 1; test: Bioactivity of inguinal white adipose tissue after single oral administration in C57BL/6N mice, read as inhibition of human 11β-HSD type 1 (SPA); settings: mouse inguinal white adipose tissue extract
Experimental: Four hours post-administration, the mice are euthanized and inguinal white adipose tissue is taken and frozen at −70° C. until the day of bioanalyses. The white adipose tissue is homogenized in liquid nitrogen and then treated with acetonitrile (1 ml of distilled water for 4 ml of acetonitrile and 200 mg of inguinal white adipose tissue) to extract soluble substances. The acetonitrile fraction is collected, then dried, and the residue is dissolved in 1 ml of DMSO for 300 mg of white adipose tissue.
Compounds tested: the same as those of Example 2.

11β-HSD type 1 = test: Inhibition of conversion of prednisone to prednisolone after single administration to cynomolgus monkeys; settings: for inhibition of the prednisolone/prednisone ratio in animals that respond favorably: responders only; for inhibition of plasma prednisolone/prednisone ratio of AUC (30 minutes to 4 hours): prednisone 10 mg/kg 2 h later
Experimental: The protocol used is described by Bhat et al. (J. Pharmacol. Exp. Ther. 324, 299-305, 2008).
(§3) Briefly, the study is carried out in naive adult male cynomolgus monkeys fasted overnight. The 11β-HSD type 1 inhibitor or its vehicle (0.5% methylcellulose in water) is administered via nasogastric intubation. Two hours later, a challenge with orally administered prednisone (10 mg/kg) is performed and blood samples are taken regularly for 24 hours. These samples are centrifuged to obtain plasma and immediately frozen at −70° C. until bioanalysis. Plasma levels of prednisone, prednisolone and 11β-HSD type 1 inhibitors are measured by LC-MS/MS analytical methods.
(§4) The study is carried out over a period of 10 weeks. Profiles of plasma concentration as a function of time and areas under the curve are calculated using the trapezoidal method for all parameters.
The effect of Compound 1 is evaluated at three doses: 1.25, 5 and 20 mg/kg.
The effect of Compound 1K is evaluated at three doses: 20, 40 and 80 mg/kg. The protocol is quite similar to the preceding, except that only 5 blood samples were taken per monkey rather than 7. Compound 1K was also evaluated over a period of 10 weeks.
The 11β-HSD type 1 activity-dependent conversion of prednisone to prednisolone was evaluated. Compound 2K inhibits roughly 50% this activity at a dose of 20 mg/kg (FIG. 2A). FIG. 2 represents the effects of Compound 2K, at the three doses tested, on plasma prednisolone/prednisone ratio calculated with the area under the curve between 30 minutes and 4 hours (panel A) and on plasma exposure during the 6-hour experimental period (panel B); the results obtained with Compound 1K at a dose of 5 mg/kg are compared in the two panels.

[4] = Clinical and behavioral signs in cynomolgus monkeys during the prednisone challenge studies; settings: study no. 1, 1.25, 5 and 20 mg/kg
Experimental: as §3, §4

[5] = mice, 1 h, read-out: Plasma 1 h % inh.
[6] = mice, 4 h, read-out: Plasma 4 h % inh.
[7] = mouse plasma (2% final volume), 1 h after 0.63 mg/kg oral
[8] = mouse plasma, 1 h after 2.5 mg/kg oral
[9] = mouse plasma, 1 h after 10 mg/kg oral
[10] = mouse plasma, 1 h after 40 mg/kg oral
[11] = mouse plasma, 4 h after 0.63 mg/kg oral
[12] = mouse plasma, 4 h after 2.5 mg/kg oral
[13] = mouse plasma, 4 h after 10 mg/kg oral
[14] = mouse plasma, 4 h after 40 mg/kg oral

T1 sequence (P28845 whole entry): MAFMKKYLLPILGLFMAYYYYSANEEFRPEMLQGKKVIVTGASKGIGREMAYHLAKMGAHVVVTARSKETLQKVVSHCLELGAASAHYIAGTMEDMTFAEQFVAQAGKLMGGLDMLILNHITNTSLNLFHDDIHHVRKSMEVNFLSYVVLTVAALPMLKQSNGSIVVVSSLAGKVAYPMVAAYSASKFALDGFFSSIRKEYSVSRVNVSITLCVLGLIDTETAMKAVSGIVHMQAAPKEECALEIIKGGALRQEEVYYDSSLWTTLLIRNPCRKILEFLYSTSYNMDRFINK

Structure (SMILES)	% inhibition at 1 h (human 11β-HSD type 1 [1]; [7])	% inhibition at 1 h (human 11β-HSD type 1 [1]; [8])	% inhibition at 1 h (human 11β-HSD type 1 [1]; [9])	% inhibition at 1 h (human 11β-HSD type 1 [1]; [10])	% inhibition at 4 h (human 11β-HSD type 1 [1]; [11])	% inhibition at 4 h (human 11β-HSD type 1 [1]; [12])	% inhibition at 4 h (human 11β-HSD type 1 [1]; [13])	% inhibition at 4 h (human 11β-HSD type 1 [1]; [14])	% inhibition after 4 h (human 11β-HSD type 1 [3]; 4 h after 0.63 mg/kg oral)	% inhibition after 4 h (human 11β-HSD type 1 [3]; 4 h after 2.5 mg/kg oral)	% inhibition after 4 h (human 11β-HSD type 1 [3]; 4 h after 10 mg/kg oral)	% inhibition after 4 h (human 11β-HSD type 1 [3]; 4 h after 40 mg/kg oral)	inhibition of plasma prednisolone/prednisone ratio of AUC (30 minutes to 4 hours) (11β-HSD type 1; 20 mg/kg)	other results
CN1C(C(=O)c2ccc3ccccc3c2)=C(O)c2ccccc2S1(=O)=O [Compound 1, (4-hydroxy-2-methyl-1,1-dioxido-2H-benzo[e][1,2]thiazin-3-yl)(naphthalen-2-yl)methanone]	40%	64%	81%	93%	31%	60%	81%	94%	8%	36%	63%	79%	34%	inhibition at 2.5 mg/kg (human 11β-HSD type 1 [1]; [5]): 65 ± 8%; inhibition at 2.5 mg/kg (human 11β-HSD type 1 [1]; [6]): 58 ± 5%; inhibition at 10 mg/kg (human 11β-HSD type 1 [1]; [5]): 75 ± 8%; inhibition at 10 mg/kg (human 11β-HSD type 1 [1]; [6]): 73 ± 4%; dose as of which plasma of treated mice inhibits 11β-HSD type 1 (human 11β-HSD type 1 [1]; mice, single oral administration): 0.63 mg/kg; Plasma 1 h ([2]; 2.5 mg/kg oral): 2598 ± 1478 ng/mL; Plasma 4 h ([2]; 2.5 mg/kg oral): 2205 ± 1250 ng/mL; Plasma 1 h ([2]; 10 mg/kg oral): 3675 ± 1781 ng/mL; Plasma 4 h ([2]; 10 mg/kg oral): 3823 ± 2011 ng/mL; animals that respond favorably to the treatment (11β-HSD type 1; 5 mg/kg): 60%; inhibition of the prednisolone/prednisone ratio in animals that respond favorably (11β-HSD type 1; 5 mg/kg): 28%; animals that respond favorably to the treatment (11β-HSD type 1; 20 mg/kg): 80%; inhibition of the prednisolone/prednisone ratio in animals that respond favorably (11β-HSD type 1; 20 mg/kg): 46%; dose as of which inhibition of 11β-HSD type 1 is significant and dose-dependent (11β-HSD type 1; doses 1.25, 5 and 20 mg/kg): 5 mg/kg; clinical or behavioral sign [4]: No particular clinical or behavioral sign
CN1C(C(=O)c2ccc(-c3ccc(C#N)cc3)cc2)=C([O-])c2ccccc2S1(=O)=O.[K+] [Compound 2K, potassium 3-(4′-cyanobiphenyl-4-carbonyl)-2-methyl-2H-benzo[e][1,2]thiazin-4-olate 1,1-dioxide, reference compound]	26%	63%	84%		29%	65%	86%		17%	46%	72%		roughly 50%	activity on conversion of prednisone to prednisolone (11β-HSD type 1; doses below 20 mg/kg (1.25, 5 mg/kg)): inactive
C1CCc2nnc(C34CC5CC(CC(C5)C3)C4)n2CC1 [Compound 3, 3-(1-adamantyl)-6,7,8,9-tetrahydro-5H-[1,2,4]triazolo[4,3-a]azepine, reference compound]			93%	98%			22%	68%			15%	8%		% inhibition at 1 h (human 11β-HSD type 1 [1]; mouse plasma, 1 h after 80 mg/kg oral): 101%; % inhibition at 4 h (human 11β-HSD type 1 [1]; mouse plasma, 4 h after 80 mg/kg oral): 94%; % inhibition after 4 h (human 11β-HSD type 1 [3]; 4 h after 80 mg/kg oral): 13%
